Results: ChEMBL document CHEMBL1201862, “PubChem BioAssay data set” (2004)
The source made the active and inactive calls.

What was measured:
[1] = molecular target: Cytochrome P450 3A4 (Homo sapiens, UniProt P08684);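 note: CYP3A4 tested as one member of a cytochrome P450 panel screen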
[2] = tested on: Vero; assay: cells; format: functional; conditions: Chlorocebus sabaeus
[3] = molecular target: Cytochrome P450 2D6 (Homo sapiens, UniProt P10635);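 note: CYP2D6 member of a cytochrome P450 panel assay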
Chain of Cytochrome P450 2D6 (P10635 whole entry): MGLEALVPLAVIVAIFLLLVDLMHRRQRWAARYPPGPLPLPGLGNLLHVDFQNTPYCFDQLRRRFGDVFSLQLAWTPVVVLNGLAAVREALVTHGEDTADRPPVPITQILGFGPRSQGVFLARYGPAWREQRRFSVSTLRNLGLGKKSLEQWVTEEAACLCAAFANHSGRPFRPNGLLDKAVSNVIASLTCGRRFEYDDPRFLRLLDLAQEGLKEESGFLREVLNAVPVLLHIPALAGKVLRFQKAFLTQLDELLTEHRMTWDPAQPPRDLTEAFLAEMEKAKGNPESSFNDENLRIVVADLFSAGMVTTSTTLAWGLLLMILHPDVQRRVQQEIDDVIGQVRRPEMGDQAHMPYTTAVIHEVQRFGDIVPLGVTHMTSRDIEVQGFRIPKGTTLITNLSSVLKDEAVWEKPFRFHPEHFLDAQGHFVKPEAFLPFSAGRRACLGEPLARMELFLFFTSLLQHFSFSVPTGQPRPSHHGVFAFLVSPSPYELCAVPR

[4] = tested on: Vero; assay: cells; format: functional, cell-based; conditions: Chlorocebus sabaeus
[5] = molecular target: Induced myeloid leukemia cell differentiation protein Mcl-1 (Homo sapiens, UniProt Q07820); format: functional
Chain of Induced myeloid leukemia cell differentiation protein Mcl-1 (Q07820 whole entry): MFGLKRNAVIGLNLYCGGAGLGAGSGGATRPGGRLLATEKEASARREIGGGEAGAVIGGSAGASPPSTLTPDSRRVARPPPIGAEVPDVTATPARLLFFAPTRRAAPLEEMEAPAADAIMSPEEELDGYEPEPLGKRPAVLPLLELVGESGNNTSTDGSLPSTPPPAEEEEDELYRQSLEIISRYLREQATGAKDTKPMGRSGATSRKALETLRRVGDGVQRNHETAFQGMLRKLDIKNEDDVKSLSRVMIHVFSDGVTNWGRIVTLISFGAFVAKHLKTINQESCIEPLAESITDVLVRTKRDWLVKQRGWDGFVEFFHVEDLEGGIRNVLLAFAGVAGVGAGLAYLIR

[6] = tested on: HeLa; assay: Cytotoxicity counterscreen assay for transcriptional activators of heat shock protein 70 (Hsp70). [Related pubchem assays: 1203, 1252 ]; format: functional; conditions: Homo sapiens
[7] = molecular target: T1, Hexokinase HKDC1 (Homo sapiens, UniProt Q2TB90); assay: HKDC1 hexokinase inhibitors, dose response, biochemical, W721R variant (AID 504729); format: functional
T1 sequence (Q2TB90 whole entry): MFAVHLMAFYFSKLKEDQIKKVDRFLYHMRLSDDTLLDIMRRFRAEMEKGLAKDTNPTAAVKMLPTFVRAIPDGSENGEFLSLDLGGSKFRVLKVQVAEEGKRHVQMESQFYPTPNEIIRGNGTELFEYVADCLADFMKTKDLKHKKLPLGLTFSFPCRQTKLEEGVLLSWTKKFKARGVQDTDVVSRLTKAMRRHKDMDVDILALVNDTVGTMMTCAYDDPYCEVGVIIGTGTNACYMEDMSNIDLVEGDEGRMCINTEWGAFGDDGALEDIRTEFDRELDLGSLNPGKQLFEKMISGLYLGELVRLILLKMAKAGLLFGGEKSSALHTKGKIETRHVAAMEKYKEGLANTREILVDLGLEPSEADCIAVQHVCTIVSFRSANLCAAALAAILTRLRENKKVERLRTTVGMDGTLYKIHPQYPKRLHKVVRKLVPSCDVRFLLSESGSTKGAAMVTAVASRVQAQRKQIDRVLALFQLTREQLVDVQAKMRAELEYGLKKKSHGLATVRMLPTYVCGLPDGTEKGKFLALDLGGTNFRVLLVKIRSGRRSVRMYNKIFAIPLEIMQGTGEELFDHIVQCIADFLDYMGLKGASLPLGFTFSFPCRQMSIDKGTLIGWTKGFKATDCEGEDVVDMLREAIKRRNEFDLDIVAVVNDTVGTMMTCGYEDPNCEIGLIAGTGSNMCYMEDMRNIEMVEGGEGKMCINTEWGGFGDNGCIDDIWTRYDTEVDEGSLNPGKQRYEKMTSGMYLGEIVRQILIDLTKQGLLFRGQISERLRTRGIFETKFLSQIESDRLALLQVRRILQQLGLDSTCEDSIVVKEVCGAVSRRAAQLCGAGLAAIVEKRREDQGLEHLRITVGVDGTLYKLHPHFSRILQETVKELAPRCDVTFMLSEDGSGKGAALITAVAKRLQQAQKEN

[8] = molecular target: Cytochrome P450 2C19 (Homo sapiens, UniProt P33261); assay: Cytochrome panel assay with activity outcomes. Panel member name: p450-cyp2c19 Compounds with AC50 equal or less than 10 uM are considered active; format: functional; conditions: read-out: AC50
Chain of Cytochrome P450 2C19 (P33261 whole entry): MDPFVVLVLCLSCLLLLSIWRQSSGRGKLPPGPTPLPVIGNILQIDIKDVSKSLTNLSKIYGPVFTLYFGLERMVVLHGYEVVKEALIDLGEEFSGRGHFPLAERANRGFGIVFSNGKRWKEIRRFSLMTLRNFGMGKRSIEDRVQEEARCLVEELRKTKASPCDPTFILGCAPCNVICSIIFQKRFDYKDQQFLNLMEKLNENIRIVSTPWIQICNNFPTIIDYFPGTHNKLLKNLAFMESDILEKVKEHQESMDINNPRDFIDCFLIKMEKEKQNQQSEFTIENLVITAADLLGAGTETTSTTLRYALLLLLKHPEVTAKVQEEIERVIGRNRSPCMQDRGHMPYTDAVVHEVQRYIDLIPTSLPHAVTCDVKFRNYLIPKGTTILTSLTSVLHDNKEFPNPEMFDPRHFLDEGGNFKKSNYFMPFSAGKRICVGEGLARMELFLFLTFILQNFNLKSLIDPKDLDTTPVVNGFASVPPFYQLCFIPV

[9] = tested on: HeLa; assay: HeLa cell cytotoxicity, dose response, cytotoxicity control, 24 h, cherry-picked samples (AID 504726); format: functional, cell-based; conditions: Homo sapiens;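 note: potency for cytotoxicity as loss of luminescence signal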
[10] = HEp-2 cell cytotoxicity, dose response, cytotoxicity control for RSV inhibitor project, HTS (AID 2410); format: functional; conditions: human respiratory syncytial virus
[11] = molecular target: Genome polyprotein (dengue virus type 2, UniProt P29990); assay: Dengue-2 NS5 methyltransferase inhibitors, primary screen, biochemical, confirmation dose response (AID 588689); format: functional
Chain of Genome polyprotein (P29990 2492-3391 limits assumed): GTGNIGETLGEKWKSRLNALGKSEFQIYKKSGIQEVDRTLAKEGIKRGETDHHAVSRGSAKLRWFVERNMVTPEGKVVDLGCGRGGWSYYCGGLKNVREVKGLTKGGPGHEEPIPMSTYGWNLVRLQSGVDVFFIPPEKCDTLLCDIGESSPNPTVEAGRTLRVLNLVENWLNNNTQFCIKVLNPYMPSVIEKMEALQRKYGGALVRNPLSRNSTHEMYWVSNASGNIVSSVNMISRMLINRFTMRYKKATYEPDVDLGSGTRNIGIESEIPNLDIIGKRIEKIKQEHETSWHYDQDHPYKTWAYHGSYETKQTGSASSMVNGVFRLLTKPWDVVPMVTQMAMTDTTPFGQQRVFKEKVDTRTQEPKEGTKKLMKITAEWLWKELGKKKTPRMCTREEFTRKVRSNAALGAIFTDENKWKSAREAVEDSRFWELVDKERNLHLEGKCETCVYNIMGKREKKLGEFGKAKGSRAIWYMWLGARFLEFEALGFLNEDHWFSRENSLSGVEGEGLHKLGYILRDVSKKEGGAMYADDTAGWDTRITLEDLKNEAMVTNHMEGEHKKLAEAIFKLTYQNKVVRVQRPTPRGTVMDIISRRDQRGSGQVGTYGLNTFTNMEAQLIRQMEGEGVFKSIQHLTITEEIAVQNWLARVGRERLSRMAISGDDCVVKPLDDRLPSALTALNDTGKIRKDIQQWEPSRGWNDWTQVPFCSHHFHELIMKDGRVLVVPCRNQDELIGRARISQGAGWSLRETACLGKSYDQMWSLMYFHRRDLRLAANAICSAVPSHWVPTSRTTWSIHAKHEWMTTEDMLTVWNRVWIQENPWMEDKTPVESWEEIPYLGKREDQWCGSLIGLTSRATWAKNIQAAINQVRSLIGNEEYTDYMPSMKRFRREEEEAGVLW

[12] = molecular target: FAD-linked sulfhydryl oxidase ALR (Homo sapiens, UniProt P55789); assay: inhibitors of human ALR sulfhydryl oxidase, dose response, biochemical, H2O2 detection, luminescence, cherry-pick (AID 493248)
Chain of FAD-linked sulfhydryl oxidase ALR (P55789 whole entry, the tested form may be a part): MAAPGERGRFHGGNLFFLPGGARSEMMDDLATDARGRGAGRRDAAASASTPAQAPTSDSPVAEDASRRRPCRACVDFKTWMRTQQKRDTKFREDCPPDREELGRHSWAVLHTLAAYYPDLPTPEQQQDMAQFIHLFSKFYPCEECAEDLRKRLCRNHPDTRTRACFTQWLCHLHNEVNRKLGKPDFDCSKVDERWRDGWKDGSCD

[13] = HIV-1 Env-mediated cell fusion inhibitors, dose response, CCR5-tropic Env (AID 2279); format: functional
[14] = cytotoxicity toward NIH3T3 fibroblasts, dose response, counter-screen, cell-based, ATP luminescence, mouse fibroblasts (AID 2010); format: functional;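 note: cells exposed to compound for about 90 hours before reading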
[15] = M. tuberculosis H37Rv growth inhibitors, H37Rv strain (AID 1626); format: functional
[16] = inhibitors of intracellular T. cruzi replication, confirmation, NIH3T3 host cells, beta-gal luminescence (AID 2044); format: functional, cell-based;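 note: intracellular parasites grown in NIH/3T3 mouse fibroblasts as host cells; luminescent beta-galactosidase reporter signal from transgenic T. cruzi replicating inside host cells; inhibitors lower the luminescence signal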
[17] = A Cell Based Secondary Assay To Explore Cytotoxicity of Compounds that Sensitize Mycobacterium Tuberculosis to Beta-Lactam Antibiotics.; format: functional
[18] = cells
[19] = molecular target: Cyclin-dependent kinase 5/CDK5 activator 1 (Homo sapiens, UniProt Q00535); assay: CDK5/p35 kinase inhibitors, dose response, biochemical, cherry-picked samples, set 2 (AID 504545)
Chain of Cyclin-dependent kinase 5/CDK5 activator 1 (Q00535 whole entry): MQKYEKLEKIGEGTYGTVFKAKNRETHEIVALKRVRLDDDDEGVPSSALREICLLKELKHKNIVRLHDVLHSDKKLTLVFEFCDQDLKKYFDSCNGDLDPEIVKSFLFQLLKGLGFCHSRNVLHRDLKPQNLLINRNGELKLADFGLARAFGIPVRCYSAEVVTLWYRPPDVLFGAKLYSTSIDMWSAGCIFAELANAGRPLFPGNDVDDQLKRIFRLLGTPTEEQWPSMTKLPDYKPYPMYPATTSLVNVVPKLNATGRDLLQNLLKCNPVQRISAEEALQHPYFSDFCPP
Chain of Cyclin-dependent kinase 5/CDK5 activator 1 (Q15078 whole entry, further chain): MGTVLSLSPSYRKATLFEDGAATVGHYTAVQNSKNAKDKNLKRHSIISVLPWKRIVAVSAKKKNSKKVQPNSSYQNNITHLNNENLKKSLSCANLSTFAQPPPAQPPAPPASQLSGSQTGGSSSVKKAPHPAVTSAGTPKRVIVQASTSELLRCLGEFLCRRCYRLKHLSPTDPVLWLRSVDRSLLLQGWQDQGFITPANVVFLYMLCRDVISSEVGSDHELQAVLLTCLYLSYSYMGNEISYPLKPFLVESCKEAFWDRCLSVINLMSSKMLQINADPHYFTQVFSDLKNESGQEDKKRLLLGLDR

[20] = molecular target: Luciferin 4-monooxygenase (Photinus pyralis, UniProt P08659); assay: firefly luciferase enzyme inhibitors, dose response, biochemical, luminescence (AID 1891)
Chain of Luciferin 4-monooxygenase (P08659 whole entry): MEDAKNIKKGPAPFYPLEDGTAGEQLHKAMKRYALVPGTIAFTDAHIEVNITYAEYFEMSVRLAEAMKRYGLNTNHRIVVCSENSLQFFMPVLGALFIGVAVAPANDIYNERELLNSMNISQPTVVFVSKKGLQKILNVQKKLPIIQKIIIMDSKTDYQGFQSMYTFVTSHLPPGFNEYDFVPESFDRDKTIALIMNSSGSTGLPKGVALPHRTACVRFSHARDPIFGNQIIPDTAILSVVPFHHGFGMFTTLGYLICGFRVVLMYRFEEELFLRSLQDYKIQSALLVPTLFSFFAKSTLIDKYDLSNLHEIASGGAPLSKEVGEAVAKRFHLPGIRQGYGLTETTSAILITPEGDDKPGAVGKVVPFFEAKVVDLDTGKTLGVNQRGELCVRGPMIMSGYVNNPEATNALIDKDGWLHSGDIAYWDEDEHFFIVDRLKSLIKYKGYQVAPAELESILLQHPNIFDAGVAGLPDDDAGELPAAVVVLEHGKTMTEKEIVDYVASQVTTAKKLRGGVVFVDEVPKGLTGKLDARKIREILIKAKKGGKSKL

Chain of Cytochrome P450 3A4 (P08684 whole entry): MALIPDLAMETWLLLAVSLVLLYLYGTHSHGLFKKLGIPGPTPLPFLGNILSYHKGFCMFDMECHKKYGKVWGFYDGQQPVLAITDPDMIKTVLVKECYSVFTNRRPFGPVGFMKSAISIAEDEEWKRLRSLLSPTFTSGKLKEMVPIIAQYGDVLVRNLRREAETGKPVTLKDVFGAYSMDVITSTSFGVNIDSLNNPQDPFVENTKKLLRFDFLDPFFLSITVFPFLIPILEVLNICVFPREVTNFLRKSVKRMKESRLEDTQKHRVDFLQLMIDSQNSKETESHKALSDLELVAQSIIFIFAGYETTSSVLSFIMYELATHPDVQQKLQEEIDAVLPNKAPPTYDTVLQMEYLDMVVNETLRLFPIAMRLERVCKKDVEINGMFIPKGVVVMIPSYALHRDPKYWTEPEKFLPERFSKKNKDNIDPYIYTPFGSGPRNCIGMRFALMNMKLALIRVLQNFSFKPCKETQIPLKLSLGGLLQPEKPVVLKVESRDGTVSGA

With `CC1=NOC(=O)/C1=C\c1ccc(-c2ccc(Cl)cc2Cl)o1` the AC50 [1] was 17.8 µM (inconclusive), the CC50 [2] was > 25 µM (active) and the AC50 [3] was 14.1 µM (inconclusive). The IC50 [4] was > 25 µM (active), the IC50 [5] was 1.7 µM (active) and the CC50 [6] was > 3.67 µM (not active). The IC50 [7] was 20.6 µM (inactive) and the AC50 [8] was 7.94 µM (inconclusive).
For `O=C(c1cnn2c(-c3ccccc3)cc(-c3ccccc3)nc12)N1CCN(Cc2ccccc2)CC1`, the AC50 [9] was 62.6 µM (active) and the CC50 [10] was 15.5 µM (active).
In the case of `COC(=O)c1sc(-c2ccc(C(C)(C)C)cc2)cc1NC(=O)c1ccccc1C(=O)O`, the IC50 [11] is reported as 35.9 µM (active), the AC50 [12] is reported as 0.087 µM (active) and the IC50 [13] is reported as 49.9 µM (active).
In the case of `O=C(NCc1ccco1)c1cc2n(n1)C(C(F)(F)F)CC(c1ccc(Cl)c(Cl)c1)N2` (stereo not drawn), the EC50 [14] is reported as 7.67 µM (active), the IC50 [15] is reported as > 100 µM (active) and the EC50 [16] is reported as 3.86 µM (active).
For `CN(C)c1ccc(/C=N/NC(=O)c2cc(-c3ccc4c(c3)OCO4)[nH]n2)cc1`, the CC50 [17] was 30.2 µM (active).
For `COCCNC(=O)c1cc(-c2ccc(-c3ccccc3)cc2)nc2ccccc12`, the CC50 [2] was 19.2 µM (active), the IC50 [4] was 7.44 µM (active) and the CC50 [10] was 15.2 µM (active). The IC50 [18] was 4.81 µM (active).
For `COc1cccc(C(=O)ON=C(N)c2ccccn2)c1`, the AC50 [19] was 12.9 µM (active) and the EC50 [20] was 2.07 µM (active).
